{
  "source": "patent US10160867B2",
  "about": "“Benzoxaborole-containing coating resistant to cellulose-supportable fungus” (THE PENN STATE RESEARCH FOUNDATION, priority 2015, dated 2018)",
  "type_in_all_cases": "cell-based",
  "key": {"Alternaria alternata": {"tested_on": "Alternaria alternata", "assay": "Fungus resistance test for painted surfaces containing antifungal additives (defacement rating)", "parameters": "key: 10 = no defacement, 0 = completely defaced", "settings": "+100 μg/mL in Olympic Home paint", "experimental": "(§1) A Defacement Rating is measured by estimating the percentage of surface defacement with 10 being no defacement and 0 begin completely defaced.\n(§2) This test was used to evaluate the resistance of paint films containing antifungal additives to surface fungal growth.\n(§3) Olympic® Home interior flat latex paint (PPG Industries, Pittsburgh, Pa.) and Valspar® QuikHide White flat interior paint (Valspar Corporation, Minneapolis, Minn.) were used for all studies unless otherwise noted. Stock solutions of the antifungal additives of interest were prepared in reagent grade dimethyl sulfoxide (DMSO; Alfa Aesar, Ward Hill, Mass.). Additives were spiked (by adding appropriate amounts of the antifungal stock solutions) into the liquid paint at specified concentrations. Samples of the additive-spiked paint were vigorously mixed with a vortex mixer for at least one minute to ensure uniform dispersion of the additive in the paint. […] Studies that use other brands of paint followed the same protocol as described for those using the Olympic® Home interior flat latex paint and Valspar® QuikHide paint.\n(§4) Test surfaces were prepared in triplicate. In most cases, the tested conditions were repeated on a different date, again in triplicate. […] Two coats of paint were applied with a polyester brush to completely cover both faces of the filter paper disc, allowing at least four hours drying time between coats.\n(§5) Nutrient-Salts Agar (NSA) medium was prepared according to ASTM method G21-13 in 100×15 mm sterile polystyrene petri dishes (VWR® Radnor, Pa.) with a solidified agar layer of about 3 to about 6 mm (⅛ to ¼ in.) in depth. The agar was allowed to solidify for at least 24 hours before being used. The painted test filter paper discs were placed in the center of the agar plates in a biosafety hood while wearing clean nitrile gloves.\n(§6) The paint coatings were evaluated against three representative cellulose-supportable fungi: Stachybotrys chartarum, Penicillium chrysogenum, and Alternaria alternata. […] Fungal isolates of Alternaria alternata and Penicillium chrysogenum were obtained from the Plant Pathology and Environmental Microbiology Department at Penn State University.\n(§7) A spore suspension of each of these fungi was prepared by pouring a 20-mL portion of autoclaved deionized water containing 0.01% Tween® 20 onto a subculture of each fungal species. Spores were counted with the use of a hemocytometer (Hausser Scientific, Horsham, Pa.) under a compound light microscope. Spore suspensions of Stachybotrys chartarum and Penicillium chrysogenum were diluted to 1×10^6 spores/mL with autoclaved deionized water. Spore suspensions of Alternaria alternata were used “as is” in the range of 200,000 to 400,000 spores/mL.\n(§8) Painted test surfaces were inoculated with a spray bottle or with a sterile cotton-tipped applicator. To inoculate the sample with a spray bottle, the spore suspension was sprayed twice on the painted test discs with an autoclaved spray bottle that delivered approximately 0.14 g of fluid per spray. To inoculate the sample with a cotton-tipped applicator, an autoclaved cotton-tipped applicator was submerged in approximately 400 μL of the spore inoculum solution (spore concentrations described above) and applied evenly over the surface of the painted test surface twice. A fresh autoclaved cotton-tipped applicator was used for the application of each painted disc. All the paint studies with Alternaria alternata and Stachybotrys chartarum were inoculated using the spray bottle method. For studies with Penicillium chrysogenum using Olympic® Home paint, the spray bottle inoculation method was used. For studies with Penicillium chrysogenum using Valspar® QuikHide paint, the cotton-tipped applicator inoculation method was used.\n(§9) After inoculation, the NSA agar plates were sealed with Parafilm®."}, "Penicillium chrysogenum": {"tested_on": "Penicillium chrysogenum", "assay": "Fungus resistance test for painted surfaces containing antifungal additives (defacement rating)", "parameters": "key: 10 = no defacement, 0 = completely defaced", "experimental": "as §1, §2, §3, §4, §5, §6, §7, §8, §9"}, "Stachybotrys chartarum": {"tested_on": "Stachybotrys chartarum", "assay": "Fungus resistance test for painted surfaces containing antifungal additives (defacement rating)", "parameters": "key: 10 = no defacement, 0 = completely defaced", "settings": "+100 μg/mL in Olympic Home paint", "experimental": "as §1, §2, §3, §4, §5, §6, §7, §8, §9"}, "Aspergillus fumigatus": {"tested_on": "Aspergillus fumigatus", "assay": "3 day MIC, broth microdilution in 25% PDB", "settings": "72 h", "experimental": "Stock solutions (concentrations of between 4,000 μg/mL to 10,000 μg/mL; stored at −18° C.) of the above antifungals were prepared in dimethyl sulfoxide (DMSO). The stock solutions were further diluted into sterile 25% potato dextrose broth (PDB) so that the diluted solutions could be used for the antifungal susceptibility studies. This way, a typical microdilution study would reach a final ratio of about 0.5-2% v/v of DMSO in 25% PDB.\nSpore inocula were prepared in sterile distilled water with 0.1% Tween® 20 (a polysorbate surfactant), and a hemocytometer was used to determine the spore density. Typically, the spore inoculum was prepared fresh prior to each study, and the inoculum was appropriately diluted to a final concentration of 0.4-1×10^5 spores/mL or colony-forming unit (CFU)/mL in each study. The spore suspension can be stored in a refrigerator at 4° C. for up to one week.\nThe minimal inhibitory concentrations (MICs) for individual antifungal agents were determined by following a modified broth microdilution protocol CLSI (Clinical and Laboratory Standards Institute) M38-A2 [Clinical and Laboratory Standards Institute (2008) Reference method for broth dilution antifungal susceptibility testing of filamentous fungi—2nd edition: Approved Standard M38-A2, CLSI, Wayne, Pa.] where 25% potato dextrose broth (PDB) was used as the medium. The studies were performed in flat bottom, 96-well microtiter plates (Greiner Bio-One, Frickenhausen, Germany).\nPlates sealed with clear polyester film (VWR, Radnor, Pa.) were incubated at a temperature of about 25° C. The progress of fungal growth was monitored at 48 hours and 72 hours."}},
  "data": [
    {"smiles": "c1ccc2[nH]c(-c3cscn3)nc2c1", "note": "[Thiabendazole]", "values": [
      {"measurement": "Average defacement rating ± standard deviation", "setting": "Alternaria alternata; 7 days", "value": "0.0 ± 0.0"},
      {"measurement": "Average defacement rating ± standard deviation", "setting": "Alternaria alternata; 14 days", "value": "0.0 ± 0.0"},
      {"measurement": "Average defacement rating ± standard deviation", "setting": "Alternaria alternata; 21 days", "value": "0.0 ± 0.0"},
      {"measurement": "Average defacement rating ± standard deviation", "setting": "Penicillium chrysogenum; +100 μg/mL in Olympic Home paint, 7 days", "value": "4.1 ± 0.0"},
      {"measurement": "Average defacement rating ± standard deviation", "setting": "Penicillium chrysogenum; +100 μg/mL in Olympic Home paint, 14 days", "value": "0.4 ± 0.4"},
      {"measurement": "Average defacement rating ± standard deviation", "setting": "Penicillium chrysogenum; +100 μg/mL in Olympic Home paint, 21 days", "value": "0.0 ± 0.0"},
      {"measurement": "Average defacement rating ± standard deviation", "setting": "Penicillium chrysogenum; +200 μg/mL in Olympic Home paint, 7 days", "value": "9.3 ± 1.2"},
      {"measurement": "Average defacement rating ± standard deviation", "setting": "Penicillium chrysogenum; +200 μg/mL in Olympic Home paint, 14 days", "value": "4.0 ± 4.7"},
      {"measurement": "Average defacement rating ± standard deviation", "setting": "Penicillium chrysogenum; +200 μg/mL in Olympic Home paint, 21 days", "value": "1.7 ± 3.6"},
      {"measurement": "Average defacement rating ± standard deviation", "setting": "Penicillium chrysogenum; +200 μg/mL in Valspar QuikHide paint, 7 days", "value": "10.0 ± 0.0"},
      {"measurement": "Average defacement rating ± standard deviation", "setting": "Penicillium chrysogenum; +200 μg/mL in Valspar QuikHide paint, 14 days", "value": "9.3 ± 1.2"},
      {"measurement": "Average defacement rating ± standard deviation", "setting": "Penicillium chrysogenum; +200 μg/mL in Valspar QuikHide paint, 21 days", "value": "4.7 ± 4.6"},
      {"measurement": "Average defacement rating ± standard deviation", "setting": "Stachybotrys chartarum; 7 days", "value": "1.3 ± 0.3"},
      {"measurement": "Average defacement rating ± standard deviation", "setting": "Stachybotrys chartarum; 14 days", "value": "0.0 ± 0.0"},
      {"measurement": "Average defacement rating ± standard deviation", "setting": "Stachybotrys chartarum; 21 days", "value": "0.0 ± 0.0"},
      {"measurement": "MIC", "setting": "Aspergillus fumigatus", "value": 6.25, "unit": "µg/mL"}
    ]}
  ]
}
